Results taken from patent US20110003773A1, “USING FULLERENES TO ENHANCE AND STIMULATE HAIR GROWTH” (Luna Innovations Incorporated, priority 2008, published 2011).

Test system: shaved C57/B6 mice
Assay: Hair growth in shaved C57/B6 mice after injection at the shaved site
Assay type: in vivo
Settings: 300 μl of 1 μg/ml in PBS injected at the shaved site every day for 12 days, vs PBS
Experimental: The backs of C57/B6 mice were shaved bald on the intracapsular part of the back. 300 μl of phosphate buffered saline (PBS) or 300 μl of 1 μg/ml of compound 5 (labelled LnW0033 in FIG. 2) in PBS was injected at the shaved site every day for 12 days.
The backs of C57/B6 mice were shaved bald on the intracapsular part of the back. 300 μl PBS or 300 μl of 1 μg/ml Polyhydroxy-C60 (C60(OH)˜18-24; BuckyUSA, Houston, Tex.; called “Poly C60” in FIG. 3) in PBS was injected at the shaved site every day for 12 days.

## Polyhydroxy-C60
  hair growth (photograph at day 12) compared to control: hair growth enhancement
